Patent US6610677B2, “Pyrazole compounds useful as protein kinase inhibitors” (Vertex Pharmaceuticals Incorporated, priority 2000, dated 2003)

Legend:
[1] = molecular target: T1, GSK-3β (AA 1-420) (Homo sapiens, UniProt P49841); assay: Ki determination for the inhibition of GSK-3 (coupled enzyme system); assay type: biochemical; conditions: 20 μM ATP, 300 μM peptide, 20 nM GSK-3β, 30° C
T1 construct: GSK-3β (AA 1-420)
Outline: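 Ki values come from reaction rates over 10 min at 30 °C as a function of inhibitor concentration (12-point titration, 0.002–30 μM, 10 min preincubation). GSK-3β (AA 1-420, 20 nM) phosphorylated 300 μM primed peptide with 20 μM ATP; ADP formation followed by coupled NADH oxidation, pH 7.5.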

[2] = molecular target: T2, Aurora-2 (Homo sapiens, UniProt O14965); assay: Ki determination for the inhibition of Aurora-2 (coupled enzyme assay); assay type: biochemical; conditions: 70 nM Aurora-2, peptide LRRASLG, 30° C
T2 sequence (O14965 1-403): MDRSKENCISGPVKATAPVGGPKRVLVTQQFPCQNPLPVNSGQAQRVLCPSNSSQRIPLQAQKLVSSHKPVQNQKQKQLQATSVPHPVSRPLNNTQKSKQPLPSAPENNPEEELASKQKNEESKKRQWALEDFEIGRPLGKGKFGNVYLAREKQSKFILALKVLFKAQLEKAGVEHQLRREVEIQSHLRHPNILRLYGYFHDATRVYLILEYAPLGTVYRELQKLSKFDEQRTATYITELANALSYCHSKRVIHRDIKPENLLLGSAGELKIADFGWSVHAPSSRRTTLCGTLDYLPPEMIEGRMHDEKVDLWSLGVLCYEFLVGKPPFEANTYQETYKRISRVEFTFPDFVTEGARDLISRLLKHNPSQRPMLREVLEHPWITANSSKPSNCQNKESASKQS
Experimental: Compounds were screened in the following manner for their ability to inhibit Aurora-2 using a standard coupled enzyme assay (Fox et al (1998) Protein Sci 7, 2249).
To an assay stock buffer solution containing 0.1M HEPES 7.5, 10 mM MgCl2, 1 mM DTT, 25 mM NaCl, 2.5 mM phosphoenolpyruvate, […], 30 mg/ml pyruvate kinase, 10 mg/ml lactate dehydrogenase, […], and 800 μM peptide (LRRASLG, American Peptide, Sunnyvale, Calif.) was added a DMSO solution of a compound of the present invention to a final concentration of 30 μM. The resulting mixture was incubated at 30° C. for 10 min. The reaction was initiated by the addition of 10 μL of Aurora-2 stock solution to give a final concentration of 70 nM in the assay. The rates of reaction were obtained by monitoring absorbance at 340 nm over a 5 minute read time at 30° C. using a BioRad Ultramark plate reader (Hercules, Calif.). The Ki values were determined from the rate data as a function of inhibitor concentration.

T1 sequence (P49841 whole entry, the tested form may be a part): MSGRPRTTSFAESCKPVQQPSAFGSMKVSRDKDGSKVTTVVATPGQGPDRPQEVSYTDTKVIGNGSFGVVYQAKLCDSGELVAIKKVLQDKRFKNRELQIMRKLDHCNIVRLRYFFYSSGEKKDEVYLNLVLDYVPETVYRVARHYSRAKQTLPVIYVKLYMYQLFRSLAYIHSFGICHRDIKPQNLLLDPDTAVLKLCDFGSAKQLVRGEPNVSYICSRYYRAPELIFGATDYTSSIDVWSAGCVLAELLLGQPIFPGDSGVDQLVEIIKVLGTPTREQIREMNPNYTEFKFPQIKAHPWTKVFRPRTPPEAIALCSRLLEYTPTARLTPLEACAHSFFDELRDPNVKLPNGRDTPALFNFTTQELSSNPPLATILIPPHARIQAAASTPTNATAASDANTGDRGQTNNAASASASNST

SMILES	Ki [1]	Ki [2]
FC(F)(F)c1ccccc1-c1cc2ccccc2c(Nc2n[nH]c3ccccc23)n1 [Compound V-2, (1H-Indazol-3-yl)-[3-(2-trifluoromethyl-phenyl)-isoquinoline-1-yl]-amine]	100 to 1000 nM	1000 to 20000 nM
Cc1cc(Nc2nc(-c3ccccc3Cl)nc(C)c2C)n[nH]1 [II-1, [2-(2-Clorophenyl)-5,6-dimethylpyrimidin-4-yl]-(5-Methyl-2H-pyrazol-3-yl)-amine]	< 100 nM	100 to 1000 nM
FC(F)(F)c1ccc2[nH]nc(Nc3nc(-c4ccccc4C(F)(F)F)nc4c3CCCC4)c2c1 [II-10, (5-Trifluoromethyl-1H-indazol-3-yl)-[2-(2-trifluoromethyl-phenyl)-5,6,7,8-tetrahydroquinazolin-4-yl]-amine]	< 100 nM	1000 to 20000 nM
FC(F)(F)c1ccccc1-c1nc(Nc2n[nH]c3ccccc23)cc(-c2ccccc2)n1 [II-20, (1H-Indazol-3-yl)-[6-phenyl-2-(2-trifluoromethyl-phenyl)-pyrimidin-4-yl]-amine]	< 100 nM	100 to 1000 nM
FC(F)(F)c1ccccc1-c1nc(Nc2n[nH]c3ccccc23)cc(-c2ccncc2)n1 [II-21, (1H-Indazol-3-yl)-[6-(pyridin-4-yl)-2-(2-trifluoromethyl-phenyl)-pyrimidin-4-yl]-amine]	< 100 nM	1000 to 20000 nM
Cc1cc(Nc2nc(-c3ccccc3C)nc3ccccc23)n[nH]1 [II-33, (5-Methyl-2H-pyrazol-3-yl)-[2-(2-methylphenyl)-quinazolin-4-yl]-amine]	< 100 nM	< 100 nM
Cc1cc(Nc2nc(-c3ccc(F)cc3F)nc3ccccc23)n[nH]1 [II-34, [2-(2,4-Difluorophenyl)-quinazolin-4-yl]-(5-methyl-2H-pyrazol-3-yl)-amine]	< 100 nM	< 100 nM
Cc1cc(Nc2nc(-c3ccccc3Cl)nc3ccccc23)n[nH]1 [II-36, [2-(2-Chlorophenyl)-quinazolin-4-yl]-(5-methyl-2H-pyrazol-3-yl)-amine]	< 100 nM	< 100 nM
COc1ccccc1-c1nc(Nc2cc(C)[nH]n2)c2ccccc2n1 [II-37, [2-(2-Methoxyphenyl)-quinazolin-4-yl]-(5-methyl-2H-pyrazol-3-yl)-amine]		< 100 nM
Cc1cc(Nc2nc(-c3c(C)cccc3C)nc3ccccc23)n[nH]1 [II-38, [2-(2,6-Dimethylphenyl)-quinazolin-4-yl]-(5-methyl-2H-pyrazol-3-yl)-amine]	< 100 nM	100 to 1000 nM
CC(=O)c1ccccc1-c1nc(Nc2cc(C)[nH]n2)c2ccccc2n1 [II-39, [2-(2-Acetylphenyl)-quinazolin-4-yl]-(5-methyl-2H-pyrazol-3-yl)-amine]	< 100 nM	100 to 1000 nM
Cc1cc(Nc2nc(-c3cccc(C)c3C)nc3ccccc23)n[nH]1 [II-40, [2-(2,3-Dimethylphenyl)-quinazolin-4-yl]-(5-methyl-2H-pyrazol-3-yl)-amine]	< 100 nM	< 100 nM
FC(F)(F)c1ccccc1-c1nc(Nc2cc(C3CC3)[nH]n2)c2ccccc2n1 [II-55, (5-Cyclopropyl-2H-pyrazol-3-yl)-[2-(2-trifluoromethyl-phenyl)-quinazolin-4-yl]-amine]		< 100 nM
Fc1ccc2[nH]nc(Nc3nc(-c4ccccc4)nc4c3CNCC4)c2c1 [IV-36, (5-Fluoro-1H-indazol-3-yl)-(2-phenyl-5,6,7,8-tetrahydro-pyrido[4,3-d]pyrimidin-4-yl)-amine]	100 to 1000 nM	
Cc1nc(Nc2nc(-c3ccccc3C(F)(F)F)nc3ccccc23)n[nH]1 [IX-38, (5-Methyl-2H-[1,2,4]triazol-3-yl)-[2-(2-trifluoromethylphenyl)-quinazolin-4-yl]-amine]	100 to 1000 nM	
CSc1n[nH]c(Nc2nc(-c3ccccc3C(F)(F)F)nc3ccccc23)n1 [IX-156, (5-Methylsulfanyl-2H-[1,2,4]triazol-3-yl)-[2-(2-trifluoromethylphenyl)-quinazolin-4-yl]-amine]	1000 to 20000 nM	
c1ccc(-c2cc(Nc3nc[nH]n3)c3ccccc3n2)cc1 [IX-176, (2-Phenyl-quinolin-4-yl)-(1H-[1,2,4]triazol-3-yl)-amine]	1000 to 20000 nM	

Other lines, results leading:

Ki [1]	Ki [2]	SMILES
1000 to 20000 nM		CN1CCN(C(=O)c2cc(Nc3nc(-c4ccccc4)nc4ccccc34)[nH]n2)CC1 [III-98, [5-(1-Methylpiperazine-4-carbonyl)-2H-pyrazol-3-yl]-(2-phenyl-quinazolin-4-yl)-amine]
1000 to 20000 nM		O=C(NCCO)c1cc(Nc2nc(-c3ccccc3)nc3ccccc23)[nH]n1 [III-99]
1000 to 20000 nM		NC(=O)c1cc(Nc2nc(-c3ccccc3)nc3ccccc23)[nH]n1 [III-100, (5-Carbamoyl-2H-pyrazol-3-yl)-(2-phenyl-quinazolin-4-yl)-amine]
100 to 1000 nM		COC(=O)c1cc(Nc2nc(N3CCCCC3)nc3ccccc23)[nH]n1 [III-122, (5-Methoxycarbonyl-2H-pyrazol-3-yl)-[2-(piperidine-1-yl)-quinazolin-4-yl]-amine]
1000 to 20000 nM		O=C(c1cc(Nc2nc(N3CCCCC3)nc3ccccc23)[nH]n1)N1CCCCC1 [III-123, [5-(Piperidine-1-carbonyl)-2H-pyrazol-3-yl]-[2-(piperidine-1-yl)-quinazolin-4-yl]-amine]
< 100 nM		FC(F)(F)c1ccc2[nH]nc(Nc3nc(-c4ccccc4)nc4c3CCCC4)c2c1 [III-128, (2-Phenyl-5,6,7,8-tetrahydroquinazolin-4-yl)-(5-trifluoromethyl-1H-indazol-3-yl)-amine]
< 100 nM		Fc1cc(F)c2n[nH]c(Nc3nc(-c4ccccc4)nc4ccccc34)c2c1 [III-131, (5,7-Difluoro-1H-indazol-3-yl)-(2-phenyl-quinazolin-4-yl)-amine]
100 to 1000 nM		COc1cccc(-n2nc3c(Nc4nc(-c5ccccc5)nc5ccccc45)n[nH]c3cc2=O)c1 [III-134, [5-(3-Methoxy-phenyl)-6-oxo-5,6-dihydro-1H-pyrazolo[4,3-c]pyridazin-3-yl]-(2-phenyl-quinazolin-4-yl)-amine]
100 to 1000 nM		O=c1cc2[nH]nc(Nc3nc(-c4ccccc4)nc4ccccc34)c2nn1-c1ccccc1 [III-135, (6-Oxo-5-phenyl-5,6-dihydro-1H-pyrazolo[4,3-c]pyridazin-3-yl)-(2-phenyl-quinazolin-4-yl)-amine]
100 to 1000 nM		COc1ccc(-n2nc3c(Nc4nc(-c5ccccc5)nc5ccccc45)n[nH]c3cc2=O)cc1 [III-136, [5-(4-Methoxy-phenyl)-6-oxo-5,6-dihydro-1H-pyrazolo[4,3-c]pyridazin-3-yl]-(2-phenyl-quinazolin-4-yl)-amine]
1000 to 20000 nM		O=c1cc2[nH]nc(Nc3nc(-c4ccccc4)nc4ccccc34)c2nn1-c1ccc(Cl)cc1Cl [III-137, [5-(2,4-Dichloro-phenyl)-6-oxo-5,6-dihydro-1H-pyrazolo[4,3-c]pyridazin-3-yl]-(2-phenyl-quinazolin-4-yl)-amine]
100 to 1000 nM		O=c1cc2[nH]nc(Nc3nc(-c4ccccc4)nc4ccccc34)c2nn1-c1cccc(C(F)(F)F)c1 [III-138, [6-Oxo-5-(3-trifluoromethyl-phenyl)-5,6-dihydro-1H-pyrazolo[4,3-c]pyridazin-3-yl]-(2-phenyl-quinazolin-4-yl)-amine]
1000 to 20000 nM		O=c1cc2[nH]nc(Nc3nc(-c4ccccc4)nc4ccccc34)c2nn1-c1ccc(Oc2ccccc2)cc1 [III-139, [6-Oxo-5-(4-Phenoxy-phenyl)-5,6-dihydro-1H-pyrazolo[4,3-c]pyridazin-3-yl]-(2-phenyl-quinazolin-4-yl)-amine]
100 to 1000 nM		O=c1cc2[nH]nc(Nc3nc(-c4ccccc4)nc4ccccc34)c2nn1-c1ccc(Cl)cc1 [III-140, [5-(4-Chloro-phenyl)-6-oxo-5,6-dihydro-1H-pyrazolo[4,3-c]pyridazin-3-yl]-(2-phenyl-quinazolin-4-yl)-amine]
100 to 1000 nM		Cc1nccn1-c1nc(Nc2[nH]nc3ccccc23)c2ccccc2n1 [III-142]
1000 to 20000 nM		c1ccc2c(Nc3[nH]nc4ccccc34)nc(N3CCCCC3)nc2c1 [III-143, (1H-Indazol-3-yl)-(2-piperidin-1-yl-quinazolin-4-yl)-amine]
1000 to 20000 nM		CC1CN(c2nc(Nc3[nH]nc4ccccc34)c3ccccc3n2)CC(C)O1 (stereo not shown) [III-145, (1H-Indazol-3-yl)-[2-(2,6-dimethyl-morpholin-4-yl)-quinazolin-4-yl]-amine]
1000 to 20000 nM		CC1CCCCN1c1nc(Nc2n[nH]c3ccccc23)c2ccccc2n1 (stereo not shown) [III-146]
